In brackets after ≈: the same amount, converted by molar mass.
What was measured:
S. pneum 1256 (erm) = test: microbe, parasite or virus in culture; type: cell-based, streptococcus pneumoniae; conditions: agar dilution, 18-24 hours, 35±2° C., 5% CO2; erm: ribosomal modification (mutation) erm genes
Protocol: (§1) Drug dilutions and the agar plates are prepared by NCCLS method. Inoculum is prepared by direct colony suspensions in normal saline and adjusted to 0.5 McFarland turbidity and subsequently diluted as per NCCLS guidelines in order to obtain 10^4 CFU/spot. CFU/ml of a few randomly selected cultures is performed. The cultures are replicated on the agar plates using replicator (Denley's multipoint). The plates are incubated at 35±2° C. and in 5% CO2 atmosphere (for respiratory and Haemophilus strains) for 18-24 hours at 35±2° C. Minimum inhibitory concentrations (MIC) are determined after 18-24 hours. Q. C. strains are also included in each run of the study. The cation content of Mueller Hinton agar is checked by performing disk […] of 10 μg gentamicin disk against Pseudomonas aeroginosa ATCC 27853. The zone of inhibition should fall between 16-21 mm. The concentration of drug at which there is complete disappearance of growth spot or formation of less than 10 colonies per spot is considered as MIC.

S. pneum 1275 (erm) = test: microbe, parasite or virus in culture; type: cell-based, streptococcus pneumoniae; conditions: for Minimum Inhibitory Concentrations, S. pneum 1275 (erm): agar dilution, 18-24 hours, 35±2° C., 5% CO2, erm: ribosomal modification (mutation) erm genes
Protocol: as §1

S. pneum 1294 (mef) = test: microbe, parasite or virus in culture; type: cell-based, streptococcus pneumoniae; conditions: agar dilution, 18-24 hours, 35±2° C., 5% CO2; mef: efflux pump mef genes
Protocol: as §1

S. pneum AB 14 (erm) = test: microbe, parasite or virus in culture; type: cell-based, streptococcus pneumoniae; conditions: for Minimum Inhibitory Concentrations, S. pneum AB 14 (erm): agar dilution, 18-24 hours, 35±2° C., 5% CO2, erm: ribosomal modification (mutation) erm genes
Protocol: as §1

S. pneum AB 29 (erm) = test: microbe, parasite or virus in culture; type: cell-based, streptococcus pneumoniae; conditions: agar dilution, 18-24 hours, 35±2° C., 5% CO2; erm: ribosomal modification (mutation) erm genes
Protocol: as §1

S. pneum AB 30 (erm) = test: microbe, parasite or virus in culture; type: cell-based, streptococcus pneumoniae; conditions: agar dilution, 18-24 hours, 35±2° C., 5% CO2; erm: ribosomal modification (mutation) erm genes
Protocol: as §1

S. pneum 1251 (mef) = test: MIC, agar incorporation method (NCCLS agar dilution method); type: cell-based, streptococcus pneumoniae; conditions: 18-24 hours, 35±2° C., 5% CO2, mef: efflux pump mef genes
Protocol: as §1

S. pneum AB 34 (mef) = test: as above; type: cell-based, streptococcus pneumoniae; conditions: 18-24 hours, 35±2° C., 5% CO2, mef: efflux pump mef genes
Protocol: as §1

S. pneum ATCC 49619 = test: as above; type: cell-based, streptococcus pneumoniae; conditions: 35±2° C.; for Minimum Inhibitory Concentrations, S. pneum ATCC 49619: 18-24 hours, 5% CO2
Protocol: as §1

S. pneum ATCC 6303 = test: as above; type: cell-based, streptococcus pneumoniae; conditions: 18-24 hours, 35±2° C., 5% CO2
Protocol: as §1

S. pneum CS 1687 (mef) = test: as above; type: cell-based, streptococcus pneumoniae; conditions: 18-24 hours, 35±2° C., 5% CO2, mef: efflux pump mef genes
Protocol: as §1

MoraXella MI = test: as above; type: cell-based; conditions: 18-24 hours, 35±2° C.
Protocol: as §1

H. inflenza ATCC 49247 = test: as above; type: cell-based, Haemophilus influenzae; conditions: agar dilution, 18-24 hours, 35±2° C., 5% CO2
Protocol: Minimum inhibitory concentrations (μg/ml) were obtained for representative compounds of the invention, which are given in Table 2.
as §1

Compound | Minimum Inhibitory Concentrations, S. pneum 1256 (erm) (S. pneum 1256 (erm)) [µg/mL] | Minimum Inhibitory Concentrations, S. pneum 1275 (erm) (S. pneum 1275 (erm)) [µg/mL] | Minimum Inhibitory Concentrations, S. pneum 1294 (mef) (S. pneum 1294 (mef)) [µg/mL] | Minimum Inhibitory Concentrations, S. pneum AB 14 (erm) (S. pneum AB 14 (erm)) [µg/mL] | Minimum Inhibitory Concentrations, S. pneum AB 29 (erm) (S. pneum AB 29 (erm)) [µg/mL] | Minimum Inhibitory Concentrations, S. pneum AB 30 (erm) (S. pneum AB 30 (erm)) [µg/mL] | Minimum Inhibitory Concentrations, S. pneum 1251 (mef) (S. pneum 1251 (mef)) [µg/mL] | Minimum Inhibitory Concentrations, S. pneum AB 34 (mef) (S. pneum AB 34 (mef)) [µg/mL] | Minimum Inhibitory Concentrations, S. pneum ATCC 49619 (S. pneum ATCC 49619) [µg/mL] | Minimum Inhibitory Concentrations, S. pneum ATCC 6303 (S. pneum ATCC 6303) [µg/mL] | Minimum Inhibitory Concentrations, S. pneum CS 1687 (mef) (S. pneum CS 1687 (mef)) [µg/mL] | Minimum Inhibitory Concentrations, MoraXella MI (MoraXella MI) [µg/mL] | Minimum Inhibitory Concentrations, H. inflenza ATCC 49247 (H. inflenza ATCC 49247) [µg/mL] | MIC (S. pneum 1275 (erm); Streptococcus pneumoniae, read-out: Minimum Inhibitory Concentrations, S. pneum 1275 (erm)) [µg/mL] | MIC (S. pneum AB 14 (erm); Streptococcus pneumoniae, read-out: Minimum Inhibitory Concentrations, S. pneum AB 14 (erm)) [µg/mL] | MIC (S. pneum ATCC 49619; Streptococcus pneumoniae, ATCC49619, 18-24 hours, 5% CO2, read-out: Minimum Inhibitory Concentrations, S. pneum ATCC 49619) [µg/mL] | MIC (MoraXella MI; Moraxella, read-out: Minimum Inhibitory Concentrations, MoraXella MI) [µg/mL]
3-O-(3-Fluorophenyl)acetyl-5-O-(3′-N-desmethyl-3′-N-allyl)desosaminyl-6-O-methyl erythronolide A [Compound No. 19] | >16 | >16 | 4 | >16 | 2 | >16 | 2 | 16 | 2 | 2 | 2 | 16 | – | – | – | – | –
3-O-(3-Fluorophenyl)acetyl-5-O-(3′-N-desmethyl-3′-N-propargyl)desosaminyl-6-O-methyl erythronolide A [Compound No. 22] | >16 | >16 | 4 | >16 | – | >16 | 4 | >16 | 0.5 | 0.5 | 1 | 4 | >16 | – | – | – | –
3-O-(3-Fluorophenyl)acetyl-5-O-[3′-N-desmethyl-3′-N-cyclopropyl)desosaminyl-6-O-methyl erythronolide A [Compound No. 16] | 16 | >16 | 1 | >16 | – | >16 | 8 | >16 | 4 | 1 | 4 | >16 | >16 | – | – | – | –
3-O-(4-Fluorophenyl)acetyl-5-O-(3′-N-desmethyl-3′-N-allyl)desosaminyl-6-O-methyl erythronolide A [Compound No. 20] | 16 | >16 | 1 | >16 | – | >16 | 1 | >16 | 0.25 | 0.5 | 1 | 16 | >16 | – | – | – | –
CCC[C@@H]1C[C@@H](C(=O)N[C@@H]([C@H]2O[C@H](SC)[C@H](O)[C@@H](O)[C@H]2O)[C@H](C)Cl)N(C)C1 [Cl, Clindamycin, reference compound] | – | – | – | – | – | – | – | – | – | – | – | – | – | > 16 | > 16 | 0.015 (≈ 0.0353 µM) | 2 (≈ 4.71 µM)
CCC1OC(=O)C(C)C(OC(=O)Cc2ccccc2F)C(C)C(OC2OC(C)CC(N(C)Cc3ccc(F)cc3)C2O)C(C)(OC)CC(C)C(=O)C(C)C(O)C1(C)O (stereo not shown) [Compound No. 5, 3-O-(2-Fluorophenyl)acetyl-5-O-[3′-N-desmethyl-3′-N-(4-fluoro)benzyl]desosaminyl-6-O-methyl erythronolide A] | >8 | >16 | 2 | >8 | – | >8 | 2 | >8 | 2 | 2 | 2 | >8 | >128 | – | – | – | –
CCC1OC(=O)C(C)C(OC(=O)Cc2ccc(F)cc2)C(C)C(OC2OC(C)CC(N(C)Cc3ccc([N+](=O)[O-])cc3)C2O)C(C)(OC)CC(C)C(=O)C(C)C(O)C1(C)O (stereo not shown) [Compound No. 24, 3-O-(4-Fluorophenyl)acetyl-5-O-(3′-N-desmethyl-3′-N-(4-nitro)benzyl)desosaminyl-6-O-methyl erythronolide A] | >16 | >16 | 2 | 8 | >16 | >16 | 1 | >16 | 0.5 | 0.5 | 0.5 | 2 | – | – | – | – | –
CCC1OC(=O)C(C)C(OC(=O)Cc2ccc3ccccc3c2)C(C)C(OC2OC(C)CC(N(C)Cc3ccccc3)C2O)C(C)(OC)CC(C)C(=O)C(C)C(O)C1(C)O (stereo not shown) [Compound No. 73, 3-O-(2-Naphthyl)acetyl-5-O-(3′-N-desmethyl-3′-N-benzyl) desosaminyl-6-O-methyl erythronolide A] | >16 | >16 | >16 | >16 | >16 | >16 | 2 | >16 | 2 | 1 | 2 | 16 | – | – | – | – | –
CCC1OC(=O)C(C)C(OC(=O)Cc2ccc(F)cc2F)C(C)C(OC2OC(C)CC(N(C)Cc3ccccc3)C2O)C(C)(OC)CC(C)C(=O)C(C)C(O)C1(C)O (stereo not shown) [Compound No. 74, 3-O-(2,4-Difluorophenyl)acetyl-5-O-(3′-N-desmethyl-3′-N-benzyl) desosaminyl-6-O-methyl erythronolide A] | >16 | >16 | >16 | 16 | >16 | >16 | >16 | >16 | >16 | 8 | >16 | >16 | – | – | – | – | –
